The values below come from EP4745135A1 (Gluetacs Therapeutics (Shanghai) Co., Ltd., priority 2023, dated 2025).

Molecules are shown by their SMILES.

In experiment [1] the test system is Human acute myeloid leukemia cell line: Kasumi-1. Kind of experiment: Tumor cell proliferation inhibition (CellTiter-Meiluncell luminescent cell viability assay). The settings on record: Kasumi 1, 96 h; for inhibition at 0.01 µM: read-out: Inhibition Rate at 10 nM (%); for inhibition at 0.5 µM: read-out: Inhibition Rate at 500 nM (%).
The test system of experiment [2] is Human myeloid monocytic leukemia cell (MV-4-11). Described as above. The settings on record: MV4-11, 96 h; for inhibition at 0.01 µM: read-out: Inhibition Rate at 10 nM (%); for inhibition at 0.5 µM: read-out: Inhibition Rate at 500 nM (%).
Method: The tumor cells used herein were cultured in a cell culture medium listed in table 2 at 37°C in an incubator with 5% CO2. Prior to experimentation, all cell lines used were correctly identified by STR profiling, and tested negative for mycoplasma contamination using a mycoplasma detection kit through routine screenings.
The IC50 values of the compounds of the present disclosure (including the compounds in Table 1 and Examples) were determined using the CellTiter-Meiluncell Luminescent Cell Viability Assay Kit from Dalian Meilun Biotech Co., Ltd. The detailed procedure is as follows: Tumor cells were seeded in 96-well cell culture plates at the densities specified in Table 3. On the following day, the test compounds of the present disclosure were subjected to serial dilution. The dilution can be performed according to one of the following two methods: • (1) The first dilution method: The test compounds of the present disclosure (including the compounds in Table 1 and Examples) were subjected to 5-fold serial dilutions starting from a highest concentration of 2000 µM, resulting in a total of 9 concentrations from high to low (2000, 400, 80, 16, 3.2, 0.64, 0.128, 0.0256, 0.00512 µM). Subsequently, 0.5 µL of the test compound dilution was transferred into the 96-well plate containing the cells, with each well containing 100 µL of cell culture medium. […] Into the 96-well plate, the diluted test compounds and corresponding detection reagents were added, resulting in final test compound concentrations of 500 nM and 10 nM, respectively. The experimental procedure is described below using the diluted 2 µM test compound as an example.
0.5 µL of the aforementioned diluted compound of the present disclosure (including the compounds in Table 1 and Examples) was added to the seeded cells in 100 µL of medium, yielding a final test compound concentration of 10 nM. After the cells were treated with the compounds of the present disclosure for a specified period, the cell viability assay reagent was added to the culture medium according to the kit's instructions to determine cell viability. […] All controls were treated using the same procedure as the compounds of the present disclosure. The growth inhibition curves for the compounds of the present disclosure were plotted using Prism GraphPad software, and the IC50 values were calculated therefrom.
Experiment [3] has as its system Human T cell acute lymphoblastic leukemia cell (CCRF-CEM). The description is as above. The following applies: 96 h; for inhibition at 0.01 µM: read-out: Inhibition Rate at 10 nM (%); for inhibition at 0.5 µM: read-out: Inhibition Rate at 500 nM (%).
Experiment [4] has as its system GSPT1. Kind of experiment: Western blot, degradation of substrate protein in hPBMCs. The class given is cell-based, Human. (A western blot detects proteins with antibodies after separation by electrophoresis.)
For experiment [5], the system named is Human multiple myeloma cell (MM.1S). Kind of experiment: Tumor cell proliferation inhibition (CellTiter-Meiluncell luminescent cell viability assay). The settings on record: for inhibition at 0.01 µM / inhibition at 0.5 µM: Homo sapiens, MM1.S, 96 h; for inhibition at 0.01 µM: read-out: Inhibition Rate at 10 nM (%); for inhibition at 0.5 µM: read-out: Inhibition Rate at 500 nM (%).

The target in experiment [6] is T1, human Cereblon WT GST-tagged protein (Homo sapiens, UniProt Q96SW2).
T1 construct: purchased CISBIO 64BDCRBNPEH
T1 sequence (Q96SW2 whole entry): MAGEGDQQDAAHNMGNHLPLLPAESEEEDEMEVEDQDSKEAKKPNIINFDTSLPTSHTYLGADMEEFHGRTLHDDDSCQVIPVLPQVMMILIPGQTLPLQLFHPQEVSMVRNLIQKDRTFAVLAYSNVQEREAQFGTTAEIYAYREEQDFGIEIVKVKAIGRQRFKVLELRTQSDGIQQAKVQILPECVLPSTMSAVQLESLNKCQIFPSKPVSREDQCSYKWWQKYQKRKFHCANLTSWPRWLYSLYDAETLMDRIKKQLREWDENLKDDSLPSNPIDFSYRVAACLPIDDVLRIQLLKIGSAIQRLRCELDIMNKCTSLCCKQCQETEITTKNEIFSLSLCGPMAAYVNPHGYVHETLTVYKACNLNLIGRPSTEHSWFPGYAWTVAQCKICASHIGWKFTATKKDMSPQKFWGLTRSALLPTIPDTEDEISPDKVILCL
Kind of experiment: CRBN-binding affinity, HTRF (CEREBLON BINDING kit). The following applies: for inhibition at 0.5 µM: read-out: Inhibition Rate at 0.5 µM (%); for inhibition at 2 µM: read-out: Inhibition Rate at 2 µM (%). A general note: TR-FRET usually uses a lanthanide donor and a delayed reading to cut background.

Experiment [7] concerns Human acute T lymphocytic leukemia cell (Molt4). Kind of experiment: Tumor cell proliferation inhibition (CellTiter-Meiluncell luminescent cell viability assay). The settings on record: MOLT-4, 96 h; for inhibition at 0.01 µM: read-out: Inhibition Rate at 10 nM (%); for inhibition at 0.5 µM: read-out: Inhibition Rate at 500 nM (%).
In experiment [8] the test system is Human T lymphocytic leukemia cell line: Jurkat. Described as above. The settings on record: 96 h; for inhibition at 0.01 µM: read-out: Inhibition Rate at 10 nM (%); for inhibition at 0.5 µM: read-out: Inhibition Rate at 500 nM (%).
For experiment [9], the target named is T2, IKZF1 (Homo sapiens, UniProt Q13422+Q96SW2).
T2 construct: effects of the compounds of the present disclosure on the expression of target proteins in cells; endogenous in cells; host or cells: human PBMCs (Milecell Biotechnologies)
T2 sequence (Q13422 whole entry): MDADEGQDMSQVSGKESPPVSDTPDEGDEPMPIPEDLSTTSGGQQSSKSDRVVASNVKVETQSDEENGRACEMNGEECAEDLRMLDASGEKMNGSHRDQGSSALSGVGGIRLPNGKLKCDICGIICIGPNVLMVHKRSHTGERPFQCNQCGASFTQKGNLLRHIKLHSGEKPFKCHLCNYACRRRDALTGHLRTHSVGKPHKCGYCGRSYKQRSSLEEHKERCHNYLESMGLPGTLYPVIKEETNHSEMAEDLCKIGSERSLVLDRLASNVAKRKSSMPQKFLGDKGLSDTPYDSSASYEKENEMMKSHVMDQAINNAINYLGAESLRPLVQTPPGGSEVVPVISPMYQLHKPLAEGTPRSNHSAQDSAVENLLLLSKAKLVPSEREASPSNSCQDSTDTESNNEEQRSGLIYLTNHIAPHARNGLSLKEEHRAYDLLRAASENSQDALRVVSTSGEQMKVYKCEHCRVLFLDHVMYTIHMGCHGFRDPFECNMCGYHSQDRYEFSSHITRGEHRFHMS
T2 sequence (Q96SW2 whole entry): as the sequence (Q96SW2 whole entry) above
T2 sequence (Q16531 whole entry partner): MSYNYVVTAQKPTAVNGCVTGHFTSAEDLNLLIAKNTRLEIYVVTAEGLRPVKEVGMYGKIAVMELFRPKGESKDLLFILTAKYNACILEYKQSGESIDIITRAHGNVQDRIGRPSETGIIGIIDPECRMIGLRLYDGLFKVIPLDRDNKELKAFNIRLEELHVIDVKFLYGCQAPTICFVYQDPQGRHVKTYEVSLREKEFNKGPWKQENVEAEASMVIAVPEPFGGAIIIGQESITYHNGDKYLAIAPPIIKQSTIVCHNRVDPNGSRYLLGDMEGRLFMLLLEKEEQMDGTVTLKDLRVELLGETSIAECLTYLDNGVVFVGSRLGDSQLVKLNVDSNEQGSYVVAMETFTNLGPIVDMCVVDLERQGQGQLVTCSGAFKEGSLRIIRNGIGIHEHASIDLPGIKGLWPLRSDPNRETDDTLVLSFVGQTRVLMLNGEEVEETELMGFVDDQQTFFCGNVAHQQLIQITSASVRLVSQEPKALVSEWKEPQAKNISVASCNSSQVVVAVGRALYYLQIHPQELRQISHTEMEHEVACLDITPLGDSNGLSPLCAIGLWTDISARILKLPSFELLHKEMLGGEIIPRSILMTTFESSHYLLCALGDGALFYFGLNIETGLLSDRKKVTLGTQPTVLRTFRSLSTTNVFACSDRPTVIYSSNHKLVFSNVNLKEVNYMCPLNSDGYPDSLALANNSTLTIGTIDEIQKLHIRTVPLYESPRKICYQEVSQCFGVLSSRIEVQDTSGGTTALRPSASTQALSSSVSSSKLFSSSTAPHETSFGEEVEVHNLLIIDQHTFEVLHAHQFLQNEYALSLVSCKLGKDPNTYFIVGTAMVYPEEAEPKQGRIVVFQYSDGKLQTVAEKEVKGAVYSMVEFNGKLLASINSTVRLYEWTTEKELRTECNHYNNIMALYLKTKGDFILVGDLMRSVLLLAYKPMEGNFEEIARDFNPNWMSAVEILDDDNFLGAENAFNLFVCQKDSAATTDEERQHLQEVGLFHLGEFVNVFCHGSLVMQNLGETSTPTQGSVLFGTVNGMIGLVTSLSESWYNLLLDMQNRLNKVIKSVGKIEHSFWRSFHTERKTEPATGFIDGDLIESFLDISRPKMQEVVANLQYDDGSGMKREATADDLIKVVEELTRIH
Kind of experiment: Western blot, degradation of substrate protein in hPBMCs. The class given is cell-based.

The target in experiment [10] is T3, IKZF3 (Homo sapiens, UniProt Q96SW2+Q9UKT9).
T3 construct: effects of the compounds of the present disclosure on the expression of target proteins in cells; endogenous in cells; host or cells: human PBMCs (Milecell Biotechnologies)
T3 sequence (Q9UKT9 whole entry): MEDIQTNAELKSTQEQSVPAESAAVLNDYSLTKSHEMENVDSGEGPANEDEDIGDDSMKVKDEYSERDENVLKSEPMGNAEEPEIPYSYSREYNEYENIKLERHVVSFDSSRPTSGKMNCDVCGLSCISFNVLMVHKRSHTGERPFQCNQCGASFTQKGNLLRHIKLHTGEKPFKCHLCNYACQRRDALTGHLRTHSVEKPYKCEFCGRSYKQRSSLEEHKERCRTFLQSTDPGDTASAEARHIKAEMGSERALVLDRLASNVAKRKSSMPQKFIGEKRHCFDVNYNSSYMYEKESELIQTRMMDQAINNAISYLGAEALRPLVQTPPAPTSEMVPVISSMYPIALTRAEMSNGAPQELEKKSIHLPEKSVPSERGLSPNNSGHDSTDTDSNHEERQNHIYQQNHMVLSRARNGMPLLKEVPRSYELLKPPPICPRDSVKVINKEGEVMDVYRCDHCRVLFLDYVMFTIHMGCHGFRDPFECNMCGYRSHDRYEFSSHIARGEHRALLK
T3 sequence (Q96SW2 whole entry): as the sequence (Q96SW2 whole entry) above
T3 sequence (Q16531 whole entry partner): as the sequence (Q16531 whole entry partner) above
Described as above. The class given is cell-based.

The target in experiment [11] is T4, IKZF2 (Homo sapiens, UniProt Q96SW2+Q9UKS7).
T4 construct: effects of the compounds of the present disclosure on the expression of target proteins in cells; endogenous in cells; host or cells: human PBMCs (Milecell Biotechnologies)
T4 sequence (Q9UKS7 whole entry): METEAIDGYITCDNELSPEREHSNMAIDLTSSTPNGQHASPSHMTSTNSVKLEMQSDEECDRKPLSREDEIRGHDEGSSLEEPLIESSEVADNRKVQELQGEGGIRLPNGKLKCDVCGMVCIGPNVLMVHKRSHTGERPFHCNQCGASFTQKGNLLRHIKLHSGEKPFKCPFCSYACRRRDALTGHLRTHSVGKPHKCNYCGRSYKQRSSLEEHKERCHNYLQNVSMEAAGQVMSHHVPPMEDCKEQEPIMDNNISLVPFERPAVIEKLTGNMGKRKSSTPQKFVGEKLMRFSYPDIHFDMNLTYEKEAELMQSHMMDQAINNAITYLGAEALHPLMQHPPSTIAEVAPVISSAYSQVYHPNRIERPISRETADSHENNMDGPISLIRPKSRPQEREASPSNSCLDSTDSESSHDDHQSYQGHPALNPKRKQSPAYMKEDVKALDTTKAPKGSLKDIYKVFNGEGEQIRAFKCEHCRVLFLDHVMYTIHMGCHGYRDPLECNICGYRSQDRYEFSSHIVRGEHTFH
T4 sequence (Q96SW2 whole entry): as the sequence (Q96SW2 whole entry) above
T4 sequence (Q16531 whole entry partner): as the sequence (Q16531 whole entry partner) above
Described as above. Type of experiment: cell-based.

Experiment [12] concerns the target T5, WEE1 (Homo sapiens, UniProt P30291+Q96SW2).
T5 construct: effects of the compounds of the present disclosure on the expression of target proteins in cells; endogenous in cells; host or cells: human PBMCs (Milecell Biotechnologies)
The experiment is described as above. The class given is cell-based.

Experiment [13] has as its target T6, CK1α (Homo sapiens, UniProt P48729+Q96SW2).
T6 construct: effects of the compounds of the present disclosure on the expression of target proteins in cells; endogenous in cells; host or cells: human PBMCs (Milecell Biotechnologies)
Described as above. Type of experiment: cell-based.

Experiment [14] relates to Human multiple myeloma peripheral blood B lymphocyte cell (RPMI-8226). Kind of experiment: Tumor cell proliferation inhibition (CellTiter-Meiluncell luminescent cell viability assay). The settings on record: RPMI-8226, 96 h.
Where [15] appears, read: Western blot, 24 hours of compound treatment, compounds tested at 50 nM and 500 nM (concentration for the table not stated).
The mark [16] stands for this setting: 24 hours treatment, compounds at 50 nM and 500 nM (concentration behind the class not stated).

T6 sequence (P48729 whole entry): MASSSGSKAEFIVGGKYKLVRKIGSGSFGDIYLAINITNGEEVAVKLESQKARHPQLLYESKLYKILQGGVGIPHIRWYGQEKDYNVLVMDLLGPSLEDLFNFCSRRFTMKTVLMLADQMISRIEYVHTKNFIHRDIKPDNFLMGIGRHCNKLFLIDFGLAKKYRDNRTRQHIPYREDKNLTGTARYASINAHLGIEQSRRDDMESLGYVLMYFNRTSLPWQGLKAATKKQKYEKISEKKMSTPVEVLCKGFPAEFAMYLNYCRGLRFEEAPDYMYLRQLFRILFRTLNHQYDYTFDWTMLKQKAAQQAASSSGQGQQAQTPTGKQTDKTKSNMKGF
T6 sequence (Q96SW2 whole entry): as the sequence (Q96SW2 whole entry) above
T6 sequence (Q16531 whole entry partner): as the sequence (Q16531 whole entry partner) above
T5 sequence (P30291 whole entry): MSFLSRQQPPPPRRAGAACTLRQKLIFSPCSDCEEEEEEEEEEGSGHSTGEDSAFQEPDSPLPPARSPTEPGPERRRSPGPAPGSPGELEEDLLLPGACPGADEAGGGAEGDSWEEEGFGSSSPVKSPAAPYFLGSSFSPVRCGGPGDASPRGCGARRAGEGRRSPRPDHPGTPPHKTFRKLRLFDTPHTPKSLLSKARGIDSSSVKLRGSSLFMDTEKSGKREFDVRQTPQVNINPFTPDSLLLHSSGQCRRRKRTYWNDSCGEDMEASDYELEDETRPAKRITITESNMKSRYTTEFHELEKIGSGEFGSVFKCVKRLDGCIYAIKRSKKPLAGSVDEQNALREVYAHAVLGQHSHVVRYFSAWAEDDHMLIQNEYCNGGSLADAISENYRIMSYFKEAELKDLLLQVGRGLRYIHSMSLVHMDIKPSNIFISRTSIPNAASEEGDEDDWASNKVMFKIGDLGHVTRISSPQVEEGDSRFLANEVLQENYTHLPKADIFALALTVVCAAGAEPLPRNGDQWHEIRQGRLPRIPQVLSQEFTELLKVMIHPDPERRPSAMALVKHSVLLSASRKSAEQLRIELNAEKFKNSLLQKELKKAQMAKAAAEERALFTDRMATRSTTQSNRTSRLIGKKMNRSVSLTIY
T5 sequence (Q96SW2 whole entry): as the sequence (Q96SW2 whole entry) above
T5 sequence (Q16531 whole entry partner): as the sequence (Q16531 whole entry partner) above

On to `O=C1CCC(N2Cc3cc(CN4CCN(c5ccccc5)CC4)ccc3C2=S)C(=O)N1` (centres unmarked) [GT-08205, 3-(5-((4-phenylpiperazin-1-yl)methyl)-1-thioxoisoindolin-2-yl)piperidine-2,6-dione], for which the inhibition at 0.01 µM in experiment [1] was 10 to 20%; in [2], 5 to 10%; in [3], 10 to 20%; in experiment [5] it was 10 to 20%; in experiment [7] it was 0 to 5%; in experiment [8], 5 to 10%. Moreover, the inhibition at 0.5 µM in [1] fell in the range of 40 to 50%; in [2] it was 80 to 100%; in experiment [3] it was 60 to 70%; in [6], 60 to 80%; in experiment [7], 60 to 70%; in [8] it was 30 to 40%. Also, in experiment [4] (setting [15]), the “GSPT1 substrate protein remaining %” value is recorded as “A (0% ≤ substrate protein remaining % ≤ 80%)”. Also, the “Inhibition Rate at 500 nM (%)” value in experiment [5] (MM.1S, 500 nM, 96 hours) is “la8”. In addition, the inhibition at 2 µM in experiment [6] lay in the range of 80 to 100%. Also, in [9] (setting [15]), the “IKZF 1 substrate protein remaining %” value is “B (80%< substrate protein remaining %≤ 100%)”. The “IKZF3 substrate protein remaining %” value in experiment [10] (setting [15]) is “A (0% ≤ substrate protein remaining % ≤ 80%)”. Also, the “IKZF2 substrate protein remaining %” value in experiment [11] (setting [15]) is reported as “A (0% ≤ substrate protein remaining % ≤ 80%)”. In addition, in [12] (setting [15]), the “Wee1 substrate protein remaining %” value is listed as “A (0% ≤ substrate protein remaining % ≤ 80%)”. Also, the “CK1α substrate protein remaining %” value in experiment [13] (setting [15]) is recorded as “B (80%< substrate protein remaining %≤ 100%)”.
Consider `Cc1ccc(Sc2ccccc2N2CCN(Cc3cccc4c3CN(C3CCC(=O)NC3=O)C4=S)CC2)c(C)c1` (centres unmarked) [GT-08332, 3-(4-((4-(2-((2,4-dimethylphenyl)thio)phenyl)piperazin-1-yl)methyl)-1-thioxoisoindolin-2-yl)piperidine-2,6-dione], for which the inhibition at 0.01 µM in experiment [1] was -5 to 0%; in experiment [2], -5 to 0%; in experiment [3] it was -5 to 0%; in [5], 10 to 20%; in [7], -5 to 0%; in [8], 0 to 5%. In addition, the inhibition at 0.5 µM in experiment [1] was 80 to 100%; in [2] it was 60 to 80%; in [3], 80 to 100%; in experiment [5], 80 to 100%; in experiment [7], 80 to 100%; in experiment [8], 80 to 100%. Besides, the “GSPT1 substrate protein remaining %” value in experiment [4] (setting [16]) was “A (0% ≤ substrate protein remaining % ≤ 80%)”. Also, the “IKZF 1 substrate protein remaining %” value in experiment [9] (setting [16]) is reported as “A (0% ≤ substrate protein remaining % ≤ 80%)”. Besides, the “IKZF3 substrate protein remaining %” value in [10] (setting [16]) was “B (80%< substrate protein remaining %≤ 100%)”. Besides, the “IKZF2 substrate protein remaining %” value in experiment [11] (setting [16]) was “A (0% ≤ substrate protein remaining % ≤ 80%)”. The “Wee1 substrate protein remaining %” value in experiment [12] (setting [16]) is reported as “A (0% ≤ substrate protein remaining % ≤ 80%)”. Besides, the “CK1α substrate protein remaining %” value in [13] (setting [16]) is given as “A (0% ≤ substrate protein remaining % ≤ 80%)”.
In the case of `O=C1CCC(N2Cc3cc(CN4CCC(c5ccsc5)CC4)ccc3C2=S)C(=O)N1` (centres unmarked) [GT-08324, 3-(5-((4-(thiophen-3-yl)piperidin-1-yl)methyl)-1-thioxoisoindolin-2-yl)piperidine-2,6-dione], the inhibition at 0.01 µM is 0 to 5% in [1]; 30 to 40% in [2]; 5 to 10% in experiment [3]; 20 to 30% in experiment [5]; 10 to 20% in experiment [7]; -5 to 0% in experiment [8]. Moreover, the inhibition at 0.5 µM in experiment [1] is 60 to 70%; in [2] it was 80 to 100%; in experiment [3], 80 to 100%; in experiment [5] it was 80 to 100%; in [6] it was 60 to 80%; in experiment [7] it was 80 to 100%. For the same molecule, the inhibition at 0.5 µM in experiment [8] was in the range of 40 to 50%. In addition, the “GSPT1 substrate protein remaining %” value in experiment [4] (setting [16]) is on record as “A (0% ≤ substrate protein remaining % ≤ 80%)”. The inhibition at 2 µM in experiment [6] fell in the range of 80 to 100%. Further, the “IKZF 1 substrate protein remaining %” value in experiment [9] (setting [16]) is “A (0% ≤ substrate protein remaining % ≤ 80%)”. Moreover, the “IKZF3 substrate protein remaining %” value in experiment [10] (setting [16]) was “B (80%< substrate protein remaining %≤ 100%)”. Moreover, in [11] (setting [16]), the “IKZF2 substrate protein remaining %” value was “A (0% ≤ substrate protein remaining % ≤ 80%)”. The “Wee1 substrate protein remaining %” value in experiment [12] (setting [16]) is listed as “A (0% ≤ substrate protein remaining % ≤ 80%)”. For the same molecule, the “CK1α substrate protein remaining %” value in [13] (setting [16]) is given as “A (0% ≤ substrate protein remaining % ≤ 80%)”.
`O=C1CCC(N2Cc3cc(CN4CC=C(c5ccoc5)CC4)ccc3C2=S)C(=O)N1` (centres unmarked) [GT-08328, 3-(5-((4-(furan-3-yl)-3,6-dihydropyridin-1(2H)-yl)methyl)-1-thioxoisoindolin-2-yl)piperidine-2,6-dione]: the inhibition at 0.01 µM lay within 5 to 10% in experiment [1]; 40 to 60% in [2]; 10 to 20% in [3]; 50 to 60% in experiment [5]; 10 to 20% in experiment [7]; 0 to 5% in experiment [8]. For the same molecule, the inhibition at 0.5 µM in [1] lay within 60 to 70%; in experiment [2] it was 80 to 100%; in experiment [3] it was 80 to 100%; in [5], 80 to 100%; in experiment [6] it was 60 to 80%; in experiment [7], 80 to 100%. The inhibition at 0.5 µM in experiment [8] lay within 40 to 50%. In addition, the “GSPT1 substrate protein remaining %” value in experiment [4] (setting [16]) was “A (0% ≤ substrate protein remaining % ≤ 80%)”. In addition, the inhibition at 2 µM in experiment [6] is 80 to 100%. Besides, the “IKZF 1 substrate protein remaining %” value in [9] (setting [16]) is “B (80%< substrate protein remaining %≤ 100%)”. In addition, the “IKZF3 substrate protein remaining %” value in experiment [10] (setting [16]) is recorded as “B (80%< substrate protein remaining %≤ 100%)”. Further, the “IKZF2 substrate protein remaining %” value in [11] (setting [16]) is on record as “B (80%< substrate protein remaining %≤ 100%)”. Moreover, the “Wee1 substrate protein remaining %” value in experiment [12] (setting [16]) is on record as “A (0% ≤ substrate protein remaining % ≤ 80%)”. In addition, in experiment [13] (setting [16]), the “CK1α substrate protein remaining %” value is listed as “A (0% ≤ substrate protein remaining % ≤ 80%)”.
`O=C1CCC(N2Cc3cc(CN4CCC(c5cccc(F)c5F)CC4)ccc3C2=S)C(=O)N1` (centres unmarked) [GT-08331, 3-(5-((4-(2,3-difluorophenyl)piperidin-1-yl)methyl)-1-thioxoisoindolin-2-yl)piperidine-2,6-dione]: the inhibition at 0.01 µM in experiment [1] was 5 to 10%; in experiment [3] it was 5 to 10%; in experiment [14] (read-out: Inhibition Rate at 10 nM (%)), 10 to 20%; in [5], 10 to 20%; in [7], 10 to 20%; in [8] it was 5 to 10%. For the same molecule, the inhibition at 0.5 µM fell in the range of 70 to 80% in experiment [1]; 80 to 100% in experiment [3]; 40 to 50% in [14] (read-out: Inhibition Rate at 500 nM (%)); 80 to 100% in experiment [5]; 40 to 53% in [6]; 80 to 100% in experiment [7]. For the same molecule, in [8], the inhibition at 0.5 µM lay within 50 to 60%. In addition, the “GSPT1 substrate protein remaining %” value in experiment [4] (setting [16]) is “A (0% ≤ substrate protein remaining % ≤ 80%)”. The inhibition at 2 µM in experiment [6] fell in the range of 80 to 100%. In addition, the “IKZF 1 substrate protein remaining %” value in experiment [9] (setting [16]) is listed as “A (0% ≤ substrate protein remaining % ≤ 80%)”. In addition, in experiment [10] (setting [16]), the “IKZF3 substrate protein remaining %” value was “B (80%< substrate protein remaining %≤ 100%)”. Further, in [11] (setting [16]), the “IKZF2 substrate protein remaining %” value is “A (0% ≤ substrate protein remaining % ≤ 80%)”. The “Wee1 substrate protein remaining %” value in experiment [12] (setting [16]) is “A (0% ≤ substrate protein remaining % ≤ 80%)”. In [13] (setting [16]), the “CK1α substrate protein remaining %” value was “A (0% ≤ substrate protein remaining % ≤ 80%)”.

What is called inhibition is the relative decrease from the control value, in per cent.
